Reference: patent US10849878B2 (OBSHCHESTVO S OGRANICHENNOY OTVETSTVENNOSTYU “NORMOFARM”, priority 2015, dated 2020)
Where “and” joins values, the source holds several entries; their conditions need not be identical. Equal values may be shown once. Read-outs that look alike come from different tables or passages of the source.

Columns and labels:
rats = test: Porsolt helplessness test; format: in vivo, rat
male Wistar rats = conditions: for Dead / Survived: 6 rats
white Wistar rats = test: suspension test (24 h), antistress and anxiolytic activity; format: in vivo, rat
Description: The anti-stress, anxiolytic and antidepressant effects of the claimed agent and compositions on its basis were determined as follows. […] The suspension test. Five animals from each group were used. Each animal was suspended for 24 hours. After that the sample of whole blood was taken from the sublingual vessels of that animal Then the animal was placed in a desiccator with diethyl ether. 60 minutes later a spinal decapitation of the animal was performed. The abdominal opening was performed and the number of ulcers on the inner surface of the stomach was counted. The obtained whole blood was placed in two test tubes. The whole blood was used to determine the number of eosinophils by the Duncker method. Serum was used to determine the biochemical composition of the blood. Adrenaline and norepinephrine were determined as biochemical indices. These characteristics are specific markers identifying the impact of stress factors of various etiologies. • 2. The transport stress simulation test. Five animals from each group were used. The animals were placed in cages fixed on a laboratory shutter. The duration of the test was 240 minutes. At the end of the test the animals were examined by the techniques described in paragraph 1. A sample of whole blood was taken to determine the number of eosinophils by the Duncker method. The blood serum was studied to measure the amount of enzymes: alanine aminotransferase (ALT), aspartate aminotransferase (AST), creatinine
The tests were carried out on 2-month-old rats of the Wistar line. The groups were selected according to the principle of paired counterparts.
During the course of the study the animals were selected from the formed groups of 10 animals each to participate in stress tests, 5 animals per test. The selection was made on the 7th, 14th, 21st day of the drug administration (experiments were performed on the same days right after selection). The animals were weighed weekly immediately before testing. The obtained data were processed by statistical methods of mathematical statistics. The drug was administered to the animals of the 2nd, 3rd and 4th groups in solution through a gastric tube. Water for injection produced by the “Bufus Novosibkhimpharm” was used as a solvent. The introduced volume was 1.5 ml. The solution was introduced at the same tine 2 hours after morning feeding. The first group was given water for injection by the same way. The volume of administration was 1.5 ml.
During the test a change in the reaction of the animals was observed during prolonged administration of the preparation. Three sequences of the experiment were performed with a periodicity of 7 days. The drug was administered from the first day of the study daily without a break. Thus, accumulation of the drug in the animal body occurred. Five animals from each group were used in each sequence of the experiment (the animals were suspended for 24 hours). After this, blood samples were taken from the sublingual vessels. Further, the animal was euthanized with diethyl ether. Decapitation and dissection of the abdominal cavity were performed to calculate the number of ulcers on the inner surface of the stomach. The rats as objects for the study of psychotropic drugs are a successful model. They react quickly to various stress factors. It is convenient to evaluate the efficacy of drugs due to various factors beginning with physiological, behavioral, biochemical and other parameters. In the suspension test, it is possible to determine the overall psycho-emotional state of the animal in addition to physical endurance.
The physiological, morphological and biochemical characteristics, such as the determination of ulcers in the stomach, eosinophils in whole blood, epinephrine and norepinephrine in blood serum were estimated as main and most informative indicators of the onset of a stress state in a living organism and of overall impact on the body. […]

[1] = 7 days after the dosing, LiAsc, LiCa 5 mg/kg, phenazepam 0.25 mg
[2] = 7 days after the drug withdrawal, 5 mg/kg
[3] = 28 days after the dosing, LiAsc, LiCa 5 mg/kg, phenazepam 0.25 mg
[4] = 28 days after the drug withdrawal, 5 mg/kg
[5] = single oral dose 6000 mg/kg, 6000 mg/kg
[6] = single oral dose 7000 mg/kg, 7000 mg/kg
[7] = 30 mg/kg solution by gastric tube, administration day 7
[8] = 30 mg/kg solution by gastric tube, administration day 14
[9] = 30 mg/kg solution by gastric tube, administration day 21
[10] = 60 mg/kg in the form of pills with cocoa, administration day 7
[11] = 60 mg/kg in the form of pills with cocoa, administration day 14
[12] = 60 mg/kg in the form of pills with cocoa, administration day 21
[13] = 60 mg/kg solution by gastric tube, administration day 7
[14] = 60 mg/kg solution by gastric tube, administration day 14
[15] = 60 mg/kg solution by gastric tube, administration day 21
[16] = 120 mg/kg solution by gastric tube, administration day 7
[17] = 120 mg/kg solution by gastric tube, administration day 14
[18] = 120 mg/kg solution by gastric tube, administration day 21

`O=C1O[C@H]([C@@H](O)CO)C([O-])=C1O.[Li+]` [lithium ascorbate] was tested, and the Adrenalin (rats; [1]) was 7.4 ± 1.4 µg/L, the “Duration of activity” value (rats; [1]) was 356.4 ± 26.1 s and the “Duration of immobility” value (rats; [1]) was 243.6 ± 17.6 s. The “Eosinophils (Dunger method) in mm^3” value (rats; [1]) was 783.2 ± 24.7 in mm^3, the Noradrenalin (rats; [1]) was 19.9 ± 0.9 µg/L and the “Number of gastric ulcers” value (rats; [1]) was 1.5 ± 0.6. The Adrenalin (rats; [2]) was 8.4 ± 0.9 µg/L, the “Duration of activity” value (rats; [2]) was 472.6 ± 29.3 s and the “Duration of immobility” value (rats; [2]) was 127.3 ± 19.7 s. The “Eosinophils (Dunger method) in mm^3” value (rats; [2]) was 923.5 ± 64.2 in mm^3, the Noradrenalin (rats; [2]) was 18.3 ± 3.2 µg/L and the “Number of gastric ulcers” value (rats; [2]) was 1.6 ± 0.9. For the same compound, the Adrenalin (rats; [3]) was 6.1 ± 0.6 µg/L, the “Duration of activity” value (rats; [3]) was 506.4 ± 31.4 s and the “Duration of immobility” value (rats; [3]) was 93.0 ± 19.3 s. For the same compound, the “Eosinophils (Dunger method) in mm^3” value (rats; [3]) was 987.3 ± 34.8 in mm^3, the Noradrenalin (rats; [3]) was 15.6 ± 0.79 µg/L and the “Number of gastric ulcers” value (rats; [3]) was 0.8 ± 0.2. The Adrenalin (rats; [4]) was 20.3 ± 9.3 µg/L, the “Duration of activity” value (rats; [4]) was 221.1 ± 19.8 s and the “Duration of immobility” value (rats; [4]) was 377.9 ± 86.4 s. For the same compound, the “Eosinophils (Dunger method) in mm^3” value (rats; [4]) was 409.7 ± 37.9 in mm^3, the Noradrenalin (rats; [4]) was 38.9 ± 10.9 µg/L and the “Number of gastric ulcers” value (rats; [4]) was 5.9 ± 0.4. For the same compound, the LD100 (male Wistar rats; oral, white rats of the Wistar line) was 8000 mg/kg, the “Dead, %” value (male Wistar rats; single oral dose 1000 mg/kg) was 0% and the Dead (male Wistar rats; single oral dose 1000 mg/kg) was 0. The Survived (male Wistar rats; single oral dose 1000 mg/kg) was 6, the “Dead, %” value (male Wistar rats; single oral dose 2000 mg/kg) was 0% and the Dead (male Wistar rats; single oral dose 2000 mg/kg) was 0. For the same compound, the Survived (male Wistar rats; single oral dose 2000 mg/kg) was 6, the “Dead, %” value (male Wistar rats; single oral dose 3000 mg/kg) was 0% and the Dead (male Wistar rats; single oral dose 3000 mg/kg) was 0. For the same compound, the Survived (male Wistar rats; single oral dose 3000 mg/kg) was 6, the “Dead, %” value (male Wistar rats; single oral dose 4000 mg/kg) was 0% and the Dead (male Wistar rats; single oral dose 4000 mg/kg) was 0. The Survived (male Wistar rats; single oral dose 4000 mg/kg) was 6, the “Dead, %” value (male Wistar rats; single oral dose 5000 mg/kg) was 16.6% and the Dead (male Wistar rats; single oral dose 5000 mg/kg) was 1. For the same compound, the Survived (male Wistar rats; single oral dose 5000 mg/kg) was 5, the “Dead, %” value (male Wistar rats; single oral dose 6000 mg/kg) was 50% and the Dead (male Wistar rats; [5]) was 3 and 3/3. The Survived (male Wistar rats; [5]) was 3 and 3/3, the “Dead, %” value (male Wistar rats; single oral dose 7000 mg/kg) was 50% and the Dead (male Wistar rats; [6]) was 3 and 3/3. For the same compound, the Survived (male Wistar rats; [6]) was 3 and 3/3, the Survived (male Wistar rats; single oral dose 8000 mg/kg) was 0 and the “Adrenaline level in blood serum” value (white Wistar rats; [7]) was 8.1 ± 0.52 µg/L. The “Eosinophil count in whole blood” value (white Wistar rats; [7]) was 764 ± 6.5, the “Noradrenaline level in blood serum” value (white Wistar rats; [7]) was 24.3 ± 2.2 µg/L and the “Number of ulcers in the stomach” value (white Wistar rats; [7]) was 4.5 ± 0.9. For the same compound, the “Adrenaline level in blood serum” value (white Wistar rats; [8]) was 6.9 ± 2.77 µg/L, the “Eosinophil count in whole blood” value (white Wistar rats; [8]) was 897 ± 7.2 and the “Noradrenaline level in blood serum” value (white Wistar rats; [8]) was 18.2 ± 5.28 µg/L. The “Number of ulcers in the stomach” value (white Wistar rats; [8]) was 2.4 ± 0.2, the “Adrenaline level in blood serum” value (white Wistar rats; [9]) was 6.9 ± 0.97 µg/L and the “Eosinophil count in whole blood” value (white Wistar rats; [9]) was 954 ± 9.7. For the same compound, the “Noradrenaline level in blood serum” value (white Wistar rats; [9]) was 17.9 ± 0.95 µg/L, the “Number of ulcers in the stomach” value (white Wistar rats; [9]) was 1.9 ± 0.4 and the “Eosinophil count in whole blood” value (white Wistar rats; [10]) was 653 ± 9.2. The “Noradrenaline level in blood serum” value (white Wistar rats; [10]) was 54.8 ± 10.4 µg/L, the “Number of ulcers in the stomach” value (white Wistar rats; [10]) was 8.7 ± 1.2 and the “Adrenaline level in blood serum” value (white Wistar rats; [11]) was 6.7 ± 0.96 µg/L. The “Eosinophil count in whole blood” value (white Wistar rats; [11]) was 913 ± 0.9, the “Noradrenaline level in blood serum” value (white Wistar rats; [11]) was 18.4 ± 0.49 µg/L and the “Number of ulcers in the stomach” value (white Wistar rats; [11]) was 1.6 ± 0.9. For the same compound, the “Adrenaline level in blood serum” value (white Wistar rats; [12]) was 7.9 ± 3.61 µg/L, the “Eosinophil count in whole blood” value (white Wistar rats; [12]) was 954 ± 3.6 and the “Noradrenaline level in blood serum” value (white Wistar rats; [12]) was 17.8 ± 0.98 µg/L. The “Number of ulcers in the stomach” value (white Wistar rats; [12]) was 1.5 ± 0.6, the “Adrenaline level in blood serum” value (white Wistar rats; [13]) was 7.9 ± 0.21 µg/L and the “Eosinophil count in whole blood” value (white Wistar rats; [13]) was 791 ± 1.2. The “Noradrenaline level in blood serum” value (white Wistar rats; [13]) was 22.1 ± 1.98 µg/L, the “Number of ulcers in the stomach” value (white Wistar rats; [13]) was 4.1 ± 0.8 and the “Adrenaline level in blood serum” value (white Wistar rats; [14]) was 7.1 ± 1.19 µg/L. For the same compound, the “Eosinophil count in whole blood” value (white Wistar rats; [14]) was 866 ± 9.4, the “Noradrenaline level in blood serum” value (white Wistar rats; [14]) was 20.3 ± 3.49 µg/L and the “Number of ulcers in the stomach” value (white Wistar rats; [14]) was 2.6 ± 0.4. For the same compound, the “Adrenaline level in blood serum” value (white Wistar rats; [15]) was 7.3 ± 2.14 µg/L, the “Eosinophil count in whole blood” value (white Wistar rats; [15]) was 910 ± 4.1 and the “Noradrenaline level in blood serum” value (white Wistar rats; [15]) was 19.3 ± 6.13 µg/L. The “Number of ulcers in the stomach” value (white Wistar rats; [15]) was 2.4 ± 0.5, the “Adrenaline level in blood serum” value (white Wistar rats; [16]) was 7.6 ± 0.38 µg/L and the “Eosinophil count in whole blood” value (white Wistar rats; [16]) was 768 ± 6.7. For the same compound, the “Noradrenaline level in blood serum” value (white Wistar rats; [16]) was 20.2 ± 5.67 µg/L, the “Number of ulcers in the stomach” value (white Wistar rats; [16]) was 4.0 ± 0.5 and the “Adrenaline level in blood serum” value (white Wistar rats; [17]) was 8.7 ± 3.82 µg/L. For the same compound, the “Eosinophil count in whole blood” value (white Wistar rats; [17]) was 885 ± 3.8, the “Noradrenaline level in blood serum” value (white Wistar rats; [17]) was 20.3 ± 4.83 µg/L and the “Number of ulcers in the stomach” value (white Wistar rats; [17]) was 2.5 ± 1.1. The “Adrenaline level in blood serum” value (white Wistar rats; [18]) was 9.6 ± 3.28 µg/L, the “Eosinophil count in whole blood” value (white Wistar rats; [18]) was 911 ± 8.2 and the “Noradrenaline level in blood serum” value (white Wistar rats; [18]) was 18.4 ± 5.27 µg/L. For the same compound, the “Number of ulcers in the stomach” value (white Wistar rats; [18]) was 2.1 ± 0.7, the “all measured characteristics versus the control group (group #1)” value (white Wistar rats; all the tests, oral aqueous solutions) was 2.5-3.5 times and the “number of defecation acts, control animals versus treated animals” value (white Wistar rats; control more than treated) was 3-4 times. The “ulcer count versus the control group (group #1)” value (white Wistar rats; oral aqueous solutions) was “more than 10 times” and the “decrease in the level of adrenaline and norepinephrine” value (white Wistar rats; versus control) was 3,5-4 times.
